# Reference: article PMC3402541, “Guanidylation and Tail Effects in Cationic Antimicrobial Lipopeptoids” (PLoS ONE, 2012)
# Where a SMILES comes first, the peptide text is derived from it. [ ]: non-standard residue; d: D form. The star is where a group is joined. Palmitoyl = CCCCCCCCCCCCCCCC(=O)*; Nlys = NCCCCNCC(=O)O
# Assays:
# [1] = system: MSSE 81388 CANWARD 2008; type: cell-based, methicillin-susceptible S. epidermidis; conditions: 24 h
# Procedure, shortened: (§1)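 Lipopeptoids, from stocks at 512 µg/mL in water (DMSO where needed), were serially doubled in cation-adjusted Mueller-Hinton broth and inoculated to approximately 5 x 10^5 CFU/mL. MIC read after 24 hr at 37°C.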
# [2] = system: MRSA ATCC 33592; type: cell-based, methicillin-resistant S. aureus; conditions: ATCC 33592, 24 h
# Procedure, shortened: as §1
# [3] = system: S. maltophilia CAN-ICU 62584; type: cell-based, Stenotrophomonas maltophilia; conditions: CAN-ICU 62584, 24 h
# Procedure, shortened: as §1
# [4] = system: MRSE CAN-ICU 61589; type: cell-based, methicillin-resistant S. epidermidis; conditions: CAN-ICU 61589, 24 h
# Procedure, shortened: as §1
# [5] = system: P.aeruginosa ATCC 27853; type: cell-based, Pseudomonas aeruginosa; conditions: ATCC 27853, 24 h
# Procedure, shortened: as §1
# [6] = system: P.aeruginosa CAN-ICU 62308; type: cell-based, Pseudomonas aeruginosa; conditions: CAN-ICU 62308, 24 h
# Procedure, shortened: as §1
# [7] = system: ovine erythrocytes; assay: Haemolytic assay; type: cell-based, sheep; conditions: ovine erythrocytes in Tris buffered saline, 30 minutes, absorbance of supernatant at 540 nm
# Procedure, shortened: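 Washed sheep erythrocytes in Tris-buffered saline exposed to compound (50 μg/mL–1 mg/mL; final 4.08 x 10^8 cells/mL) for 30 min. After centrifugation, supernatant absorbance at 540 nm gave % haemolysis; 0.5% ammonium chloride as positive control.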
# [8] = system: A. baumannii CAN-ICU 63169; type: cell-based, Acinetobacter baumannii; conditions: CAN-ICU 63169, 24 h
# Procedure, shortened: as §1
# [9] = system: K.pneumoniae ATCC 13883; type: cell-based, Klebsiella pneumoniae; conditions: ATCC 13883, 24 h
# Procedure, shortened: as §1
# [10] = system: E. faecalis ATCC 29212; type: cell-based, Enterococcus faecalis; conditions: ATCC 29212, 24 h
# Procedure, shortened: as §1
# [11] = system: S.aureus ATCC 29213; type: cell-based, Staphylococcus aureus; conditions: ATCC 29213, 24 h
# Procedure, shortened: as §1
# [12] = system: E.coli ATCC 25922; type: cell-based, Escherichia coli; conditions: ATCC 25922, 24 h
# Procedure, shortened: as §1
# [13] = system: E.coli CAN-ICU 63074; type: cell-based, Escherichia coli; conditions: CAN-ICU 63074, 24 h
# Procedure, shortened: as §1
# [14] = system: E.coli CAN-ICU 61714; type: cell-based, Escherichia coli; conditions: CAN-ICU 61714, 24 h
# Procedure, shortened: as §1
# [15] = system: S.pneumoniae ATCC 49619; type: cell-based, Streptococcus pneumoniae; conditions: ATCC 49619, 24 h
# Procedure, shortened: as §1
# [16] = system: E. faecium ATCC 27270; type: cell-based; conditions: ATCC 27270, 24 h
# Procedure, shortened: as §1
# [17] = system: S. epidermidis; type: cell-based; conditions: 24 h
# Procedure, shortened: (§2)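 Broth macrodilution MIC per CLSI guidance; single run, no replication. Cation-adjusted Mueller-Hinton broth, inoculum ~5 x 10^5 CFU/mL, 24 hr incubation in ambient air.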
# [18] = system: all three strains of E. coli; type: cell-based, Escherichia coli; conditions: 24 h
# Procedure, shortened: as §2
structure (smiles),measurement,setting,value
CCCCCCCCCCCCCCCCCCCC(=O)N(CCCCN)CC(=O)N(CCCCN)CC(=O)N(CCCCN)CC(N)=O [C20-NlysNlysNlys],MIC MSSE,[1],8 µg/mL
same,MIC MSSE in the presence of 4% bovine serum albumin,[1],128 µg/mL
same,MIC MRSA,[2],16 µg/mL
same,MIC MRSA in the presence of 4% bovine serum albumin,[2],256 µg/mL
same,MIC S. maltophilia,[3],64 µg/mL
same,MIC S. maltophilia in the presence of 4% bovine serum albumin,[3],512 µg/mL
same,MIC MRSE,[4],8 µg/mL
same,MIC MRSE in the presence of 4% bovine serum albumin,[4],128 µg/mL
same,MIC P.aeruginosa,[5],128 µg/mL
same,MIC P.aeruginosa in the presence of 4% bovine serum albumin,[5],512 µg/mL
same,MIC P.aeruginosa,[6],64 µg/mL
same,MIC P.aeruginosa in the presence of 4% bovine serum albumin,[6],512 µg/mL
same,Percent haemolysis at 100µg/mL of compound,[7],68.29%
same,MIC A. baumannii,[8],64 µg/mL
same,MIC A. baumannii in the presence of 4% bovine serum albumin,[8],512 µg/mL
same,MIC K.pneumoniae,[9],64 µg/mL
same,MIC K.pneumoniae in the presence of 4% bovine serum albumin,[9],256 µg/mL
same,MIC E. faecalis,[10],16 µg/mL
same,MIC E. faecalis in the presence of 4% bovine serum albumin,[10],256 µg/mL
same,MIC S.aureus,[11],16 µg/mL
same,MIC S.aureus in the presence of 4% bovine serum albumin,[11],128 µg/mL
same,MIC E.coli,[12],32 µg/mL
same,MIC E.coli in the presence of 4% bovine serum albumin,[12],256 µg/mL
same,MIC E.coli,[13],32 µg/mL
same,MIC E.coli in the presence of 4% bovine serum albumin,[13],256 µg/mL
same,MIC E.coli,[14],32 µg/mL
same,MIC E.coli in the presence of 4% bovine serum albumin,[14],256 µg/mL
same,MIC S.pneumoniae,[15],64 µg/mL
same,MIC S.pneumoniae in the presence of 4% bovine serum albumin,[15],512 µg/mL
same,MIC E. faecium,[16],16 µg/mL
same,MIC E. faecium in the presence of 4% bovine serum albumin,[16],256 µg/mL
same,MIC against S. epidermidis with BSA,[17],128 µg/mL
CCCCCCCCCCCCCCCC(=O)N(CCCCN)CC(=O)NCC(=O)N(CCCCN)CC(N)=O [C16-NlysGNlys] (Palmitoyl-[Nlys]-Gly-[Nlys]-NH2),MIC MSSE,[1],8 µg/mL
same,MIC MSSE in the presence of 4% bovine serum albumin,[1],512 µg/mL
same,MIC MRSA,[2],16 µg/mL
same,MIC MRSA in the presence of 4% bovine serum albumin,[2],512 µg/mL
same,MIC S. maltophilia,[3],128 µg/mL
same,MIC S. maltophilia in the presence of 4% bovine serum albumin,[3],>512 µg/mL
same,MIC MRSE,[4],16 µg/mL
same,MIC MRSE in the presence of 4% bovine serum albumin,[4],512 µg/mL
same,MIC P.aeruginosa,[5],64 µg/mL
same,MIC P.aeruginosa in the presence of 4% bovine serum albumin,[5],>512 µg/mL
same,MIC P.aeruginosa,[6],128 µg/mL
same,MIC P.aeruginosa in the presence of 4% bovine serum albumin,[6],>512 µg/mL
same,Percent haemolysis at 100µg/mL of compound,[7],56.03%
same,MIC A. baumannii,[8],128 µg/mL
same,MIC A. baumannii in the presence of 4% bovine serum albumin,[8],>512 µg/mL
same,MIC K.pneumoniae,[9],64 µg/mL
same,MIC K.pneumoniae in the presence of 4% bovine serum albumin,[9],>512 µg/mL
same,MIC E. faecalis,[10],16 µg/mL
same,MIC E. faecalis in the presence of 4% bovine serum albumin,[10],512 µg/mL
same,MIC S.aureus,[11],8 µg/mL
same,MIC S.aureus in the presence of 4% bovine serum albumin,[11],512 µg/mL
same,MIC E.coli,[12],16 µg/mL
same,MIC E.coli in the presence of 4% bovine serum albumin,[12],512 µg/mL
same,MIC against all three strains of E. coli,[18],16 µg/mL
same,MIC E.coli,[13],16 µg/mL
same,MIC E.coli in the presence of 4% bovine serum albumin,[13],512 µg/mL
same,MIC E.coli,[14],16 µg/mL
same,MIC E.coli in the presence of 4% bovine serum albumin,[14],512 µg/mL
same,MIC S.pneumoniae,[15],128 µg/mL
same,MIC S.pneumoniae in the presence of 4% bovine serum albumin,[15],512 µg/mL
same,MIC E. faecium,[16],16 µg/mL
same,MIC E. faecium in the presence of 4% bovine serum albumin,[16],512 µg/mL
